Among the data in ChEMBL document CHEMBL4834412, “2,4,5-Trisubstituted Pyrimidines as Potent HIV-1 NNRTIs: Rational Design, Synthesis, Activity Evaluation, and Crystallographic Studies” (J Med Chem, 2021) are EC50 values, retold here.

For one assay, the system named is Human immunodeficiency virus 1. Description: Antiviral activity against NNRTI-resistant HIV-1 RES056 harboring RT K103N/Y181C mutant infected in human MT4 cells assessed as protection against virus-induced cytopathogenicity after 5 days by MTT assay. It is filed as functional, organism-based. The following applies: Human immunodeficiency virus 1, RES056, MT4, 120 h. (Protection from cytopathic effect is a common read-out in antiviral testing.)
Regarding `Cc1cc(/C=C/C#N)cc(C)c1Oc1nc(NC2CCN(Cc3ccc(C(N)=O)cc3)CC2)ncc1-c1ccnc(Br)c1`, the EC50 (usually the concentration needed to bring the measured effect to its halfway point) stood at 32.2 nM.
Still for that read-out and setting: then `COc1cc(-c2cnc(NC3CCN(Cc4ccc(S(N)(=O)=O)cc4)CC3)nc2Oc2c(C)cc(/C=C/C#N)cc2C)ccn1`, with 34.3 nM.
On the same count and under the same terms, then `Cc1cc(-c2cnc(NC3CCN(Cc4ccc(S(C)(=O)=O)cc4)CC3)nc2Oc2c(C)cc(/C=C/C#N)cc2C)ccn1`, with 31.5 nM; and `Cc1cc(/C=C/C#N)cc(C)c1Oc1nc(NC2CCN(Cc3ccc(S(C)(=O)=O)cc3)CC2)ncc1-c1ccnc(Cl)c1`, with 33.3 nM.
For `Cc1cc(/C=C/C#N)cc(C)c1Oc1nc(NC2CCN(Cc3ccc(S(C)(=O)=O)cc3)CC2)ncc1-c1ccnc(F)c1`, the EC50 was determined as 25.1 nM.
Still for that read-out and setting: the figure for `Cc1cc(/C=C/C#N)cc(C)c1Oc1nc(NC2CCN(Cc3ccc(S(C)(=O)=O)cc3)CC2)ncc1-c1ccc(F)nc1` is 25.5 nM.
Regarding `COc1cc(-c2cnc(NC3CCN(Cc4ccc(S(C)(=O)=O)cc4)CC3)nc2Oc2c(C)cc(/C=C/C#N)cc2C)ccn1`, the half-maximal effective concentration (EC50) came to 30 nM.
On the same count and under the same terms, then `Cc1cc(/C=C/C#N)cc(C)c1Oc1nc(NC2CCN(Cc3ccc(S(C)(=O)=O)cc3)CC2)ncc1-c1ccnc(Br)c1`, with 33.2 nM; and `Cc1cc(-c2cnc(NC3CCN(Cc4ccc(S(N)(=O)=O)cc4)CC3)nc2Oc2c(C)cc(/C=C/C#N)cc2C)ccn1`, with 23 nM.
For the compound `COc1cc(-c2cnc(NC3CCN(Cc4ccc(C(N)=O)cc4)CC3)nc2Oc2c(C)cc(/C=C/C#N)cc2C)ccn1`, the EC50 came out at 40.3 nM.
Still for that read-out and setting: the figure for `Cc1cc(/C=C/C#N)cc(C)c1Oc1nc(NC2CCN(Cc3ccc(C(N)=O)cc3)CC2)ncc1-c1ccnc(F)c1` is 53.4 nM; for `Cc1cc(/C=C/C#N)cc(C)c1Oc1nc(NC2CCN(Cc3ccc(S(N)(=O)=O)cc3)CC2)ncc1-c1ccnc(Br)c1` it is 26.9 nM; for `Cc1cc(/C=C/C#N)cc(C)c1Oc1nc(NC2CCN(Cc3ccc(C(N)=O)cc3)CC2)ncc1-c1ccnc(Cl)c1` it is 81.7 nM.

In a further assay the test system is Human immunodeficiency virus 1. The assay is described as follows: Antiviral activity against HIV-1 strain IIIB infected in human MT4 cells assessed as protection against virus-induced cytopathicity after 5 days by MTT assay. The following applies: Human immunodeficiency virus 1, IIIB, MT4, 120 h. It is filed as functional, organism-based.
Take `Cc1cc(/C=C/C#N)cc(C)c1Oc1nc(NC2CCN(Cc3ccc(C(N)=O)cc3)CC2)ncc1-c1ccnc(Br)c1`: the EC50 is 7 nM.
The same measure, in the same setting: the figure for `COc1cc(-c2cnc(NC3CCN(Cc4ccc(S(N)(=O)=O)cc4)CC3)nc2Oc2c(C)cc(/C=C/C#N)cc2C)ccn1` is 5.75 nM; for `Cc1cc(-c2cnc(NC3CCN(Cc4ccc(S(C)(=O)=O)cc4)CC3)nc2Oc2c(C)cc(/C=C/C#N)cc2C)ccn1` it is 4.55 nM.
On the same count and under the same terms, then `Cc1cc(/C=C/C#N)cc(C)c1Oc1nc(NC2CCN(Cc3ccc(S(C)(=O)=O)cc3)CC2)ncc1-c1ccnc(Cl)c1`, with 4.23 nM; and `Cc1cc(/C=C/C#N)cc(C)c1Oc1nc(NC2CCN(Cc3ccc(S(C)(=O)=O)cc3)CC2)ncc1-c1ccnc(F)c1`, with 4.75 nM; and `Cc1cc(/C=C/C#N)cc(C)c1Oc1nc(NC2CCN(Cc3ccc(S(C)(=O)=O)cc3)CC2)ncc1-c1ccc(F)nc1`, with 6.04 nM.
The same measure, in the same setting: the figure for `COc1cc(-c2cnc(NC3CCN(Cc4ccc(S(C)(=O)=O)cc4)CC3)nc2Oc2c(C)cc(/C=C/C#N)cc2C)ccn1` is 3.95 nM; for `Cc1cc(/C=C/C#N)cc(C)c1Oc1nc(NC2CCN(Cc3ccc(S(C)(=O)=O)cc3)CC2)ncc1-c1ccnc(Br)c1` it is 4.52 nM.
With `Cc1cc(-c2cnc(NC3CCN(Cc4ccc(S(N)(=O)=O)cc4)CC3)nc2Oc2c(C)cc(/C=C/C#N)cc2C)ccn1`, the EC50 came out at 4.16 nM.
With `COc1cc(-c2cnc(NC3CCN(Cc4ccc(C(N)=O)cc4)CC3)nc2Oc2c(C)cc(/C=C/C#N)cc2C)ccn1`, the EC50 came out at 7.28 nM.
Still for that read-out and setting: the figure for `Cc1cc(/C=C/C#N)cc(C)c1Oc1nc(NC2CCN(Cc3ccc(C(N)=O)cc3)CC2)ncc1-c1ccnc(F)c1` is 8.26 nM; for `Cc1cc(/C=C/C#N)cc(C)c1Oc1nc(NC2CCN(Cc3ccc(S(N)(=O)=O)cc3)CC2)ncc1-c1ccnc(Br)c1` it is 4.42 nM.
On the same count and under the same terms, then `Cc1cc(/C=C/C#N)cc(C)c1Oc1nc(NC2CCN(Cc3ccc(C(N)=O)cc3)CC2)ncc1-c1ccnc(Cl)c1`, with 4.14 nM.

Another assay concerns Human immunodeficiency virus 1. Description: Antiviral activity against HIV-1 harboring RT Y181C mutant infected in human MT4 cells assessed as protection against virus-induced cytopathogenicity after 5 days by MTT assay. It is filed as functional, organism-based. The following applies: Human immunodeficiency virus 1, MT4, 120 h.
In the case of `Cc1cc(C#N)cc(C)c1Oc1nc(Nc2ccc(C#N)cc2)nc(N)c1Br` [ETRAVIRINE], the EC50 was found to be 13.6 nM.

The test system of a further assay is Human immunodeficiency virus 1. Description: Antiviral activity against HIV-1 harboring RT Y188L mutant infected in human MT4 cells assessed as protection against virus-induced cytopathogenicity after 5 days by MTT assay. It is filed as functional, organism-based. The following applies: Human immunodeficiency virus 1, MT4, 120 h.
Turning to `Cc1cc(C#N)cc(C)c1Oc1nc(Nc2ccc(C#N)cc2)nc(N)c1Br` [ETRAVIRINE], the EC50 came out at 13.7 nM.

The test system of another assay is Human immunodeficiency virus 1. The assay is described as follows: Antiviral activity against HIV-1 harboring RT E138K mutant infected in human MT4 cells assessed as protection against virus-induced cytopathogenicity after 5 days by MTT assay. It is filed as functional, organism-based. The following applies: Human immunodeficiency virus 1, MT4, 120 h.
Consider `Cc1cc(C#N)cc(C)c1Oc1nc(Nc2ccc(C#N)cc2)nc(N)c1Br` [ETRAVIRINE], for which the EC50 is 7.17 nM.
